Measured values: patent publication US5635483A, “Tumor inhibiting tetrapeptide bearing modified phenethyl amides” (priority 1992, dated 1997)
“And” between values parts separate entries of the source, which are not always exact repeats. Equal values may be shown once.

Experiments:
Type in all cases: cell-based
A498 = test: NCI human tumor cell line screen, renal A498; conditions: for GI-50 / TGI: Human cancer cell; for LC-50: Human cancer cells
Description: (§1) Current research in the control of cancer in the United States is coordinated by the National Cancer Institute (NCI). To determine whether a substance has anti-cancer properties, the NCI has established a systematic protocol. […] The protocol, and the established statistical means for analyzing the results obtained by the standardized testing are fully described in the literature. See: Body, Dr. Michael R., Principles & Practice of Oncology, PPO Updates, Volume 3, Number 10, October 1989, for an in depth description of the testing protocol; and Paull, K. D., "Display and Analysis of Patterns of Differential Activity of Drugs Against Human Tumor Cell Lines; Development of Mean Graph and COMPARE Algorithm", Journal of the National Cancer Institute Reports, Vol. 81, No. 14, Page 1088, Jul. 14, 1989 for a description of the methods of statistical analysis. Both of these references are incorporated herein by this reference thereto.

SF-295 = test: NCI human tumor cell line screen, CNS SF-295; conditions: for GI-50 / TGI: Human cancer cell; for LC-50: Human cancer cells
Description: (§2) Current research in the control of cancer in the United States is coordinated by the National Cancer Institute (NCI). To determine whether a substance has anti-cancer properties, the NCI has established a systematic protocol. This protocol, which involves the testing of a substance against a standard cell line panel containing 60 human tumor cell lines, has been verified and has been accepted in scientific circles. The protocol, and the established statistical means for analyzing the results obtained by the standardized testing are fully described in the literature. See: Body, Dr. Michael R., Principles & Practice of Oncology, PPO Updates, Volume 3, Number 10, October 1989, for an in depth description of the testing protocol; and Paull, K. D., "Display and Analysis of Patterns of Differential Activity of Drugs Against Human Tumor Cell Lines; Development of Mean Graph and COMPARE Algorithm", Journal of the National Cancer Institute Reports, Vol. 81, No. 14, Page 1088, Jul. 14, 1989 for a description of the methods of statistical analysis. Both of these references are incorporated herein by this reference thereto.
(§3) The extraordinary inhibition of cell growth shown by the tetrapeptide 6a-k against six major types of human cancer and against the murine P388 lymphocytic leukemia cell line has been presented in Table 1-2, below.

P-388 = test: Murine P388 lymphocytic leukemia cell growth inhibition; conditions: Mouse leukemia cell P-388
Description: as §3

OVCAR-3 = test: NCI human tumor cell line screen, ovarian OVCAR-3; conditions: for GI-50 / TGI: Human cancer cell; for LC-50: Human cancer cells
Description: as §1

SK-MEL-3 = test: NCI human tumor cell line screen, melanoma SK-MEL-3; conditions: for GI-50 / TGI: Human cancer cell; for LC-50: Human cancer cells
Description: as §2, §3

KM20L2 = test: NCI human tumor cell line screen, colon KM20L2; conditions: for GI-50 / TGI: Human cancer cell; for LC-50: Human cancer cells
Description: as §1

NCI-460 = test: NCI human tumor cell line screen, Lung-NSC NCI-460; conditions: for GI-50 / TGI: Human cancer cell; for LC-50: Human cancer cells
Description: as §1

[2S-[1[1R*(R*),2S*],2R*[1S*,2S*, 3(1R*, 2S*)]]]-N,N-dimethyl-L-valyl-N-[2-methoxy-4-[2-[1-methoxy-2- methyl-3-oxo-3-[[1-phenyl-1-hydroxy-2-propyl]amino]propyl]-1-pyrrolidinyl- 1-(methylpropyl)-4-oxobutyl]-N-methyl-L-valine amide [Peptide 6i]
GI-50 (A498): 0.0000027 µg/mL
TGI (A498): 0.0086 ng/mL
LC-50 (A498): 0.00029 µg/mL
GI-50 (SF-295): 0.000016 µg/mL
TGI (SF-295): 0.24 ng/mL
LC-50 (SF-295): > 0.01 µg/mL
ED-50 (P-388): 0.000503 µg/mL
GI-50 (OVCAR-3): 0.000021 µg/mL
TGI (OVCAR-3): 0.042 ng/mL
LC-50 (OVCAR-3): 0.000088 µg/mL
GI-50 (SK-MEL-3): 0.00058 µg/mL
TGI (SK-MEL-3): > 10 ng/mL
LC-50 (SK-MEL-3): > 0.01 µg/mL
GI-50 (KM20L2): 0.00011 µg/mL
TGI (KM20L2): 7 ng/mL
LC-50 (KM20L2): > 0.01 µg/mL
GI-50 (NCI-460): 0.000025 µg/mL
TGI (NCI-460): > 10 ng/mL
LC-50 (NCI-460): > 0.01 µg/mL

[2S-[1[1R*(R*),2S*],2R*[1S*,2S*]]]-N,N-dimethyl-L-valyl-N-[2-methoxy-4-[2- [1-methoxy-2-methyl-3-oxo-3-[[2-(3-chlor-phenyl)-ethyl]amino]propyl]-1-pyrrolidinyl-1-(methylpropyl)-4-oxo butyl]-N-methyl-L-valineamide [Peptide 6f]
GI-50 (A498): < 0.000001 µg/mL
TGI (A498): 1.7 ng/mL
LC-50 (A498): > 0.01 µg/mL
GI-50 (SF-295): 0.000028 µg/mL
TGI (SF-295): > 10 ng/mL
LC-50 (SF-295): > 0.01 µg/mL
ED-50 (P-388): 0.00225 µg/mL
GI-50 (OVCAR-3): < 0.000001 µg/mL
TGI (OVCAR-3): < 0.001 ng/mL
LC-50 (OVCAR-3): 0.00076 µg/mL
GI-50 (SK-MEL-3): < 0.000001 µg/mL
TGI (SK-MEL-3): > 10 ng/mL
LC-50 (SK-MEL-3): > 0.01 µg/mL
GI-50 (KM20L2): 0.0000007 µg/mL
TGI (KM20L2): 1.7 ng/mL
LC-50 (KM20L2): > 0.01 µg/mL
GI-50 (NCI-460): < 0.000001 µg/mL
TGI (NCI-460): 0.1 ng/mL
LC-50 (NCI-460): > 0.01 µg/mL

[2S-[1 [1R*(R*),2S*],2R*[1S*, 2S*]]]-N,N-dimethyl-L-valyl-N-[2-methoxy-4-[2-[1-methoxy-2-methyl-3-oxo-3- [[2-(4-chlor-phenyl)-etthyl]amino]propyl]-1-pyrrolidinyl-1-(methylpropyl)-4-oxo butyl]-N-methyl-L-valineamide [Peptide 6d]
GI-50 (A498): 0.000059 µg/mL
TGI (A498): 2.8 ng/mL
LC-50 (A498): > 0.0001 µg/mL
GI-50 (SF-295): 0.000046 µg/mL
TGI (SF-295): > 10 ng/mL
LC-50 (SF-295): > 0.0001 µg/mL
ED-50 (P-388): 0.00372 µg/mL
GI-50 (OVCAR-3): 0.000016 µg/mL
TGI (OVCAR-3): 0.05 ng/mL
LC-50 (OVCAR-3): 0.00096 µg/mL
GI-50 (SK-MEL-3): 0.000044 µg/mL
TGI (SK-MEL-3): > 10 ng/mL
LC-50 (SK-MEL-3): > 0.0001 µg/mL
GI-50 (KM20L2): 0.00033 µg/mL
TGI (KM20L2): 2.9 ng/mL
LC-50 (KM20L2): > 0.0001 µg/mL
GI-50 (NCI-460): 0.000025 µg/mL
TGI (NCI-460): 0.14 ng/mL
LC-50 (NCI-460): > 0.0001 µg/mL

[2S-[1[1R*(R*),2S*],2R*[1S*,2S*,3(1S*, 2S*)]]]-N,N-dimethyl-L-valyl-N-[2-methoxy-4-[2-[1-methoxy-2- methyl-3-oxo-3-[[1-phenyl-1-hydroxy-2-propyl]methylamino]propyl]- 1-pyrrolidinyl-1-(methylpropyl)-4-oxobutyl]-N-methyl-L-valineamide valineamide [Peptide 6h]
TGI (A498): > 10 ng/mL and 9.7 ng/mL
LC-50 (A498): > 0.01 µg/mL
GI-50 (SF-295): 0.00031 µg/mL and 0.00034 µg/mL
TGI (SF-295): > 10 ng/mL
LC-50 (SF-295): > 0.01 µg/mL
LC-50 (OVCAR-3): > 0.01 µg/mL
TGI (SK-MEL-3): > 10 ng/mL
LC-50 (SK-MEL-3): > 0.01 µg/mL
TGI (KM20L2): 0.52 ng/mL
LC-50 (KM20L2): > 0.01 µg/mL
GI-50 (NCI-460): 0.00006 µg/mL
TGI (NCI-460): 0.11 ng/mL
LC-50 (NCI-460): > 0.01 µg/mL
